Test results taken from US20240180931A1, “CANNABINOIDS AND USES THEREOF IN TREATMENT OF A DISEASE” (TECHNION RESEARCH & DEVELOPMENT FOUNDATION LIMITED, priority 2021, published 2024).

Key:
[1] = test system: 1 cm^2 whole-thickness dorsal wounds; experiment: whole-thickness dorsal wound healing and regeneration in mice; type: in vivo; conditions: for wound healing by single cannabinoids, compared with WW strain: IP every second day, CBG 0.11 mg/kg, THC 3.7 mg/kg (FIGS. 10B-10C)
Procedure: To this end, 1 cm^2 whole-thickness dorsal wounds were inflicted on male or female 8-week-old wildtype (WT; C57BL/6J background) mice (n=at least 3 mice per group) and the wounded mice were treated with 5 mg/kg of each strain via intraperitoneal (IP) injection every two days (FIG. 9D). Dorsal wound coverage was measured by determining wound size (%) relative to the initial wound size.
Next, the inventors sought to understand whether any single cannabinoid component of the WW strain could potentiate the WW-induced phenotypes (FIG. 10A). For this, male and female mice (8-weeks-old) on WT (wild type; C57BL/6J) background were administered IP injections of cannabigerol (CBG; 0.11 mg/kg), tetrahydrocannabinol (THC; 3.7 mg/kg), cannabinol (CBN; 0.155 mg/kg), or cannabichromene (CBC; 0.0375 mg/kg), and dorsal wound was inflicted (n=at least 3 mice per group). Cannabinoid solutions are prepared by dissolving pure cannabinoids in 100% ethanol (EtOH) to a stock concentration of 100 mg/ml. Further dilution was achieved by preparing a 1:1:18 working solution of 100% EtOH:Cremophor:1×PBS. 100 μl was administered via IP injection to each mouse every second day starting from the day of wound infliction.

[2] = test system: pCREB^S133 / ATF1 / PCNA in HaCaT cells; experiment: western blot analysis of treated HaCaT cells (pCREB, ATF1, PCNA); type: cell-based, human; conditions: for levels of active pCREB^S133 or ATF1 (western blot): HaCaT treated cells (FIG. 11B)
Procedure: (§1) In order to examine the underlying mechanism, the inventors next examined whether increased repair and proliferation is facilitated via the CAMP response element binding protein (CREB). First, the inventors utilized human keratinocyte cells (HaCaT). Cells were starved (serum-free) for 16 hours and then administered with Dimethyl sulfoxide (DMSO; carrier/solvent control), White Widow (WW) extract or cannabigerol (CBG). Next, the inventors performed immunofluorescence for activated phosphorylated CREB using specific antibodies.
In order to verify these findings, the inventors next performed western blot analysis of treated cells (as outlined above).

[3] = test system: cAMP response element binding protein (CREB); experiment: CREB phosphorylation in HaCaT keratinocytes, immunofluorescence; type: cell-based, human; conditions: serum-free 16 hours, 30 minutes post-stimulation, WW 1 μg/ml, CBG 10 μM (FIG. 11A)
Procedure: as §1

[4] = test system: NF-kappa-B (p65; NF-κB) transcription factor; experiment: TNF-α-induced NF-κB (p65) translocation in HaCaT keratinocytes, immunofluorescence; type: cell-based, Human; conditions: 30 minutes; for translocation of NF-kappa-B (p65) to the nucleus: serum starved 16 hours, extract 1 μg/ml, cannabinoids 10 μM (FIG. 4A)
Procedure: In order to examine the underlying mechanism, the inventors next examined whether improving health of the epidermis in psoriasis is dependent upon the NF-kappa-B (p65; NF-κB) transcription factor. NF-κB transcription factor is known to be active in psoriasis and high expression of its target genes leads to enhanced proliferation and inflammation (Goldminz et al., 2012). Human keratinocyte cells (HaCaT) were utilized. Cells were serum starved for 16 hours and then either non-treated (NTC) or administered with TNF-α along with either DMSO (Ctrl), Infinity (INF) extract, CBN, CBG, or THC at a concentration according to Table 2. Immunofluorescence was next performed for activated NF-κB using specific antibodies. The present data clearly indicate that, in response to TNF-α, the NF-κB (p65) transcription factor translocated to the nucleus.

CREB = CREB phosphorylation in healing wounds in vivo, immunofluorescence; set-up: species or system mice
From the text: Thereafter, the inventors examined whether CREB is phosphorylated in healing wounds. The inventors performed full-thickness excisional wounds (as described above) and harvested wounds at 8 days post wound infliction.

[5] = test system: tail skin sebaceous glands (SGs); experiment: DBL-induced acne in mouse tail skin in vivo; set-up: species or system mice; conditions: DBL intradermal at tail base every second day for 10 days, treated from day 4; 5 mg/kg INF extract, 1.6 mg/kg CBN
[6] = test system: NF-kappa-B (p65; NF-κB) signaling; experiment: TNF-α-induced NF-κB (p65) translocation in Blimp1+ sebocytes, immunofluorescence; type: cell-based, mouse; conditions: serum starved 16 hours, TNF-α (FIGS. 8A-8B)
Procedure: In order to examine the underlying mechanism, the inventors assessed the effects of INF, THC and CBN in acne and whether it is mediated through downregulation of NF-kappa-B (p65; NF-κB) signaling. NFκB transcription factor is known to be active in acne and high expression of its target genes leads to enhanced proliferation and inflammation (Kang et al., 2005). The inventors utilized mouse primary sebaceous gland progenitors (Blimp1^+ sebocytes). Cells were serum starved for 16 hours and then either non-treated (NTC) or administered with TNF-α along with either DMSO (Ctrl), Infinity (INF) extract, CBN or THC (FIGS. 8A-8B). The inventors next performed immunofluorescence for activated NF-κB using specific antibodies. The present data clearly indicate that in response to TNF-α the NF-κB (p65) transcription factor translocates to the nucleus in Blimp1^+ sebocytes.

[7] = test system: 5%-Imiquimod (IMQ) model of psoriasis; experiment: topical 5%-Imiquimod (IMQ) model of psoriasis in mice; type: in vivo
Procedure: The therapeutic potentials of five different cannabis strains were determined (namely, Infinity (INF), White Widow (WW), Cannatonic (CNT), Dance Hall (DH), and Green Crack (GC)), utilizing an in vivo setting of skin pathology. For this aim, the topical 5%-Imiquimod (IMQ) model of psoriasis (FIGS. 1A-1B) was employed. In this model, 62.5 mg of IMQ cream is applied topically on depilated dorsal skins of mice (Fits et al., 2009) every second day concurrent with administration of extracts. Extracts were administered at 5 mg/kg dose via intraperitoneal (i.p.) injection.
Examining the cannabinoid constituents of INF, the inventors next applied IMQ and treated mice with either control (vehicle only), the 5 mg/kg INF extract, 1.6 mg/kg CBN, 0.1 mg/kg CBG, 3.7 mg/kg THC, or 0.04 mg/kg CBC (FIG. 3A).
Further, the recruitment of CD3^+ T cells to the epidermis was examined in 5% IMQ-treated skins.

[8] = IMQ-treated mice, 5 mg/kg INF extract, 3.7 mg/kg THC (FIGS. 3B-3D)

Row | SMILES | epidermal invaginations in treated skins, 8 days post wounding ([1]; CBG 0.11 mg/kg IP every second day (FIG. 10D)) | regenerated hair follicles in wounds, 18 days ([1]; CBG 0.11 mg/kg IP every second day (FIGS. 10E-10F)) | wound healing by single cannabinoids, compared with WW strain [1] | levels of active pCREB^S133 or ATF1 (western blot) [2] | proliferation as indicated by the proliferation marker PCNA ([2]; HaCaT treated cells (FIG. 11C)) | CREB phosphorylation (pCREB^S133) and translocation to the nucleus [3] | translocation of NF-kappa-B (p65) to the nucleus [4] | localisation of activated p-CREB in treated wounds (CREB; CBG-treated wounds (FIG. 11F)) | activated pCREB^S133 in the epidermis adjacent to the wound (CREB; full-thickness excisional wounds, 8 days post wound infliction (FIGS. 11D-11E)) | SG cell hyperproliferation [5] | sebum over-production [5] | translocation of NFκB (p65) to the nucleus [6] | recruitment of CD3+ T cells to the epidermis ([7]; 5% IMQ-treated skins, harvested 8 days post administration (FIG. 5)) | inhibition of NF-κB (p65) translocation, comparison between treatments (% nuclear NF-κB positive cells) ([4]; 10 μM (FIG. 4B)) | decreasing abnormal levels of proliferation [7, 8] | prevention of overgrowth of the epidermis [7, 8]
1 | CCCCCc1cc(O)c(C/C=C(\C)CCC=C(C)C)c(O)c1 [CBG, cannabigerol] | considerably more epidermal invaginations | striking number of regenerated hair follicles | healed comparably to the WW strain | high phosphorylation of CREB and ATF | increased proliferation | highly phosphorylated | had no effect | co-expressed with proliferative markers | dramatic increase | – | – | – | – | – | – | –
2 | CCCCCc1cc(O)c2c(c1)OC(C)(C)c1ccc(C)cc1-2 [CBN, cannabinol] | – | – | – | only minimal (if any) effect | – | – | strongly inhibited | – | – | prevented | prevented | strongly inhibited | substantially reduced | best results of inhibition | – | –
3 | CCCCCc1cc(O)c2c(c1)OC(C)(C)[C@@H]1CCC(C)=C[C@@H]21 [THC, tetrahydrocannabinol] | – | – | to some extent | only minimal (if any) effect | – | – | strongly inhibited | – | – | – | – | strongly inhibited | – | – | comparable | comparable
4 | CCCCCc1cc(O)c2c(c1)OC(C)(CCC=C(C)C)C=C2 (centres unmarked) [CBC, cannabichromene] | – | – | – | only minimal (if any) effect | – | – | – | – | – | – | – | – | – | – | – | –
